Experimental data reported in patent US20240116985A1, “STAPLED PEPTIDES AND METHODS THEREOF” (priority 2020, published 2024).
Converted amounts (≈) assume the structure as drawn. Like-named read-outs stand apart in the source and are kept apart here.

What was measured:
[1] = CHI Log D procedure; type: physicochemical; conditions: for chromatographic logD: pH 7.4, CHI Log D; for CHI Log D: pH 7.4
[2] = Solubility in PBS; type: physicochemical
Method in brief: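 HPLC quantitation of peptide remaining in the PBS supernatant after ultracentrifugation, referenced to a 50 μM solution in DMSO.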

[3] = biological target: T1, full-length beta-Catenin (Uniprot ID P35222) (Homo sapiens, UniProt P35222); assay: Fluorescence polarization IC50 (beta-catenin / 5FAM-TCF4 10-53 competition); type: binding
T1 construct: 10 nM full-length beta-Catenin (Uniprot ID P35222)
T1 sequence (P35222 1-781): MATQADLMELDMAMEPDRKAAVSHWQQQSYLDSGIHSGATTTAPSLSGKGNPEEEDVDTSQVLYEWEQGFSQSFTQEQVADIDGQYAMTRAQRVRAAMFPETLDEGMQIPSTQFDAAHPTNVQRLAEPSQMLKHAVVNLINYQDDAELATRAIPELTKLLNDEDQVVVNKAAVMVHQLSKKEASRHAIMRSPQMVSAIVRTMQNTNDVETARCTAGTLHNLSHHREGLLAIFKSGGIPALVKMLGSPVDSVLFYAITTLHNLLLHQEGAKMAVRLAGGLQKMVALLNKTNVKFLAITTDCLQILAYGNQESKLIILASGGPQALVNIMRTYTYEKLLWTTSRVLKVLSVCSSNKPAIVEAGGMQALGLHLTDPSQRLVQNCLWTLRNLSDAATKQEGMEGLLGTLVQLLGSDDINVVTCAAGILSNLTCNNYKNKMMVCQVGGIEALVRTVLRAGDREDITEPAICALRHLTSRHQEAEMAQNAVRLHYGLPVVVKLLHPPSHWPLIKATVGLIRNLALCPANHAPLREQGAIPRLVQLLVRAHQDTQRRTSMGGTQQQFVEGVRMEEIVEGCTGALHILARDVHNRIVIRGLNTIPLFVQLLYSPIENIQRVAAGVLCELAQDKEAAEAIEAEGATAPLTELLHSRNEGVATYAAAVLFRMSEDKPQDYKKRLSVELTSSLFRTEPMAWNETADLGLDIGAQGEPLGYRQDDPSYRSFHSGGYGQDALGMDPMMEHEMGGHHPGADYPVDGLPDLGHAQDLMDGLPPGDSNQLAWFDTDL

[4] = biological target: T2, full-length B-Catenin (Uniprot ID P35222) (Homo sapiens, UniProt P35222); assay: Alphascreen binding assay (beta-catenin / biotin-TCF4 10-53)
T2 construct: 65 nM full-length B-Catenin (Uniprot ID P35222)
T2 sequence (P35222 1-781): T1 sequence (P35222 1-781)
Method in brief: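 Final concentrations: 65 nM full-length human β-catenin plus 10 nM biotin-TCF4(10-53) peptide, test peptide 3-fold from 10 uM to 5 nM, preincubated 15 min at 20 °C in Tris pH 8.0/250 mM NaCl buffer. Nickel-chelate AlphaScreen donor/acceptor beads then added for 60 min in the dark; duplicate reads fitted to 1:1 binding model with Hill slope.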

[5] = Table E2-1, read-out: beta-Catenin FP IC50
[6] = fluorescence polarization, beta-catenin, read-out: FP EC50

Structure (SMILES)	chromatographic logD [1]	Solubility [2]	IC50 [3, 5]	EC50 [4]	CHI Log D [1]	IC50 [3, 6]
CC(=O)N1CCC[C@]12CC=CCCCC1(CCCC=CCCCCCC[C@@](C)(C(=O)N[C@@H](Cc3ccccc3)C(=O)N[C@@H](Cc3c[nH]c4ccccc34)C(=O)N[C@@H](CCC(N)=O)C(N)=O)NC(=O)[C@H](C(C)C)NC(=O)[C@H](Cc3ccccc3)NC(=O)[C@H](C)NC(=O)[C@H](C)NC(=O)[C@H](CC(=O)O)NC(=O)[C@H](CC(=O)O)NC1=O)NC(=O)[C@H](C)NC(=O)[C@H](CC(=O)O)NC2=O (stereo partly drawn) [I-52, Ac-PL3-Asp-Ala-B5-Asp-Asp-Ala-Ala-Phe-Val-S8-Phe-Trp-Gln-NH2]	1.93	50 µM (≈ 89.1 µg/mL)	3200 nM	158 nM		
CC(=O)N1CCC[C@]12CC=CCCCC1(CCCC=CCCCCCC[C@@](C)(C(=O)N[C@@H](Cc3ccccc3)C(=O)N[C@@H](Cc3c[nH]c4ccccc34)C(=O)N[C@@H](CCC(N)=O)C(N)=O)NC(=O)[C@H](C)NC(=O)[C@H](Cc3ccccc3)NC(=O)[C@H](C)NC(=O)[C@H](C)NC(=O)[C@H](CC(=O)O)NC(=O)[C@H](CC(=O)O)NC1=O)NC(=O)[C@H](C)NC(=O)[C@H](CC(=O)O)NC2=O (stereo partly drawn) [I-288, Ac-PL3-Asp-Ala-B5-Asp-Asp-Ala-Ala-Phe-Ala-S8-Phe-Trp-Gln-NH2]		32 µM (≈ 56.1 µg/mL)	1310 nM	74 nM	1.926	1310 nM
CC[C@H](C)[C@H](NC(=O)[C@H](CC(=O)O)NC(=O)[C@H](C)NC(C)=O)C(=O)N[C@]1(C)CCN(C)C(=O)OCC=CCCCCC[C@@](C)(C(=O)N[C@@H](Cc2ccccc2)C(=O)N[C@@H](Cc2c[nH]c3ccccc23)C(=O)N[C@@H](Cc2c[nH]cn2)C(N)=O)NC(=O)[C@H](CCC(N)=O)NC(=O)[C@H](Cc2ccccc2)NC(=O)[C@H](C)NC(=O)[C@H](C)NC(=O)[C@H](CCC(=O)O)NC(=O)[C@H](CC(=O)O)NC1=O [I-67, Ac-Ala-Asp-Ile-RdN-Asp-Glu-Ala-Ala-Phe-Gln-S7-Phe-Trp-His-NH2]		50 µM (≈ 92.1 µg/mL)	1230 nM	154 nM	1.24	1230 nM
CC(=O)N1CCC[C@]12CC=CCCCC1(CCCC=CCCCCCC[C@@](C)(C(=O)N[C@@H](C)C(=O)N[C@@H](Cc3c[nH]c4ccccc34)C(=O)N[C@@H](CCC(N)=O)C(N)=O)NC(=O)[C@H](C(C)C)NC(=O)[C@H](Cc3ccccc3)NC(=O)[C@H](C)NC(=O)[C@H](C)NC(=O)[C@H](CC(=O)O)NC(=O)[C@H](CC(=O)O)NC1=O)NC(=O)[C@H](C)NC(=O)[C@H](CC(=O)O)NC2=O (stereo partly drawn) [I-356, Ac-PL3-Asp-Ala-B5-Asp-Asp-Ala-Ala-Phe-Val-S8-Ala-Trp-Gln-NH2]		50 µM (≈ 85.2 µg/mL)		8200 nM	1.619	
CCN(CC(=O)O)C[C@@H]1NC(=O)[C@H](CC(=O)O)NC(=O)C2(CCCC=CCCCCCC[C@@](C)(C(=O)N[C@@H](Cc3ccccc3)C(=O)N[C@@H](Cc3c[nH]c4ccccc34)C(=O)N[C@@H](CCC(N)=O)C(N)=O)NC(=O)[C@H](C(C)C)NC(=O)[C@H](Cc3ccccc3)NC(=O)[C@H](C)NC(=O)[C@H](C)NC1=O)CCCC=CC[C@]1(CCCN1C(C)=O)C(=O)N[C@@H](CC(=O)O)C(=O)N[C@@H](C)C(=O)N2 (stereo partly drawn) [I-172, Ac-PL3-Asp-Ala-B5-Asp-EtGA-Ala-Ala-Phe-Val-S8-Phe-Trp-Gln-NH2]		50 µM (≈ 91.9 µg/mL)		324 nM	2.173	
CC(=O)N[C@@H](Cc1ccccc1)C(=O)N[C@@H](CC(=O)O)C(=O)N[C@@H](C)C(=O)N[C@]1(C)CCCCCCC=CCOC(=O)N2CC[C@@](C(=O)N[C@@H](Cc3c(F)c(F)c(F)c(F)c3F)C(=O)N[C@@H](Cc3c[nH]c4ccccc34)C(=O)N[C@@H](CCC(N)=O)C(N)=O)(C2)NC(=O)[C@H](C(C)C)NC(=O)[C@H](Cc2ccccc2)NC(=O)[C@H](C)NC(=O)[C@H](C)NC(=O)[C@H](CC(=O)O)NC(=O)[C@H](CC(=O)O)NC1=O [I-227, Ac-Phe-Asp-Ala-R8-Asp-Asp-Ala-Ala-Phe-Val-PyrS-Pff-Trp-Gln-NH2]		38 µM (≈ 72.7 µg/mL)		5910 nM	1.534	
CCN(CC(=O)O)C[C@@H]1NC(=O)[C@H](CC(=O)O)NC(=O)C2(CCCC=CCCCCCC[C@@](C)(C(=O)N[C@@H](Cc3ccccc3)C(=O)N[C@@H](Cc3c[nH]c4ccccc34)C(=O)N[C@@H](CCC(N)=O)C(N)=O)NC(=O)[C@H](C(C)C)NC(=O)[C@H](Cc3ccccc3)NC(=O)[C@H](C)NC(=O)[C@H](C)NC1=O)CCCC=CC[C@]1(CCCN1C(C)=O)C(=O)N[C@@H](CC(=O)O)C(=O)N[C@@H](C)C(=O)N2 (stereo partly drawn) [I-173, Ac-PL3-Asp-Ala-B5-Asp-EtGA-Ala-Ala-Phe-Val-S8-Phe-Trp-Gln-NH2]		26 µM (≈ 47.8 µg/mL)	3120 nM	105 nM	3.076	3120 nM
CC(=O)N[C@@H](Cc1ccccc1)C(=O)N[C@@H](CC(=O)O)C(=O)N[C@@H](C)C(=O)N[C@]1(C)CCCCCCC=CCOC(=O)N2CC[C@@](C(=O)N[C@@H](Cc3c(F)c(F)c(F)c(F)c3F)C(=O)N[C@@H](Cc3c[nH]c4ccccc34)C(=O)N[C@@H](CCC(N)=O)C(N)=O)(C2)NC(=O)[C@H](C(C)C)NC(=O)[C@H](Cc2ccccc2)NC(=O)[C@H](C)NC(=O)[C@H](C)NC(=O)[C@H](CC(=O)O)NC(=O)[C@H](CC(=O)O)NC1=O [I-228, Ac-Phe-Asp-Ala-R8-Asp-Asp-Ala-Ala-Phe-Val-PyrS-Pff-Trp-Gln-NH2]		38 µM (≈ 72.7 µg/mL)		5910 nM	1.534	
CC(=O)N1CCC[C@]12CC=CCCCC1(CCCC=CCCCCCC[C@@](C)(C(=O)N[C@@H](Cc3ccc4ccccc4c3)C(=O)N[C@@H](Cc3c[nH]c4ccccc34)C(=O)N[C@@H](CCC(N)=O)C(N)=O)NC(=O)[C@H](C(C)C)NC(=O)[C@H](Cc3ccccc3)NC(=O)[C@H](C)NC(=O)[C@H](C)NC(=O)[C@H](CC(=O)O)NC(=O)[C@H](CC(=O)O)NC1=O)NC(=O)[C@H](C)NC(=O)[C@H](CC(=O)O)NC2=O (stereo partly drawn) [I-277, Ac-PL3-Asp-Ala-B5-Asp-Asp-Ala-Ala-Phe-Val-S8-2NapA-Trp-Gln-NH2]		45 µM (≈ 82.4 µg/mL)		6800 nM	2.186	
CC(=O)N1CCC[C@]12CC=CCCCC1(CCCC=CCCCCCC[C@@](C)(C(=O)N[C@@H](Cc3ccccc3)C(=O)N[C@@H](Cc3c[nH]c4ccccc34)C(=O)N[C@@H](CCC(N)=O)C(N)=O)NC(=O)[C@H](C(C)C)NC(=O)[C@H](Cc3ccccc3)NC(=O)[C@H](C)NC(=O)[C@H](C)NC(=O)[C@H](Cc3ccc(O)cc3)NC(=O)[C@H](CC(=O)O)NC1=O)NC(=O)[C@H](C)NC(=O)[C@H](CC(=O)O)NC2=O (stereo partly drawn) [I-274, Ac-PL3-Asp-Ala-B5-Asp-Tyr-Ala-Ala-Phe-Val-S8-Phe-Trp-Gln-NH2]	2.62	10 µM (≈ 18.3 µg/mL)		2350 nM		
